The values below come from PubChem BioAssay (NCI).

Molecules are shown by their SMILES.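 Results reflect a 48-hour exposure of cells in 96-well plates to compound at five concentrations. GI50 = concentration required for 50% inhibition of growth. TGI: total growth inhibition.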 Bounds are passed on as bounds.

Test systems include NCI-H226 lung; SF-268 CNS; SF-295 CNS; SK-MEL-2 melanoma; SNB-19 CNS; SNB-75 CNS; TK-10 renal; U251 CNS; A498 renal; IGROV1 ovarian.
Holding throughout (assay): growth of human tumour cells (NCI), 48 h

`CC(=O)NC(CCCCNC(=O)NCCCl)C(=O)NCc1ccccc1` (stereo not drawn): the TGI in the assay on NCI-H226 lung, in the assay with SF-268 CNS, in the assay on SF-295 CNS, in the assay on SK-MEL-2 melanoma, in the assay on SNB-19 CNS and with SNB-75 CNS was more than 100 µM in each case. In addition, the TGI with TK-10 renal and in the assay on U251 CNS was more than 100 µM in each case.

As for `OC1(c2ccccc2)OC(C#Cc2ccccc2)(c2ccccc2)c2ccccc21` (stereo not drawn), the TGI with A498 renal was 10.1 µM; in the assay with IGROV1 ovarian, 24.1 µM; with NCI-H226 lung, 7.98 µM; with SF-268 CNS it was 15.2 µM; with SF-295 CNS, 18 µM; in the assay with SNB-19 CNS it was 26.3 µM. The values for the TGI with SNB-75 CNS, with TK-10 renal and in the assay on U251 CNS were 20.4 µM, 26.2 µM and 15.1 µM, respectively.

As for `O=[N+]([O-])c1cnn(C2=CNc3ccccc3N=C2)c1`, the TGI in the assay on NCI-H226 lung, with SF-268 CNS, in the assay with SF-295 CNS, with SK-MEL-2 melanoma, with SNB-19 CNS and in the assay on SNB-75 CNS was more than 100 µM in each case. Moreover, the TGI with TK-10 renal and in the assay on U251 CNS was more than 100 µM each time.

In the case of `CN(C)/N=C(/c1nc2ccc(Cl)cc2[nH]c1=O)C(O)c1ccc(C(O)/C(=N\N(C)C)c2nc3ccc(Cl)cc3[nH]c2=O)cc1` (stereo not drawn), the TGI with A498 renal, with IGROV1 ovarian, in the assay on SF-268 CNS, in the assay on SF-295 CNS, with SK-MEL-2 melanoma and with SNB-19 CNS was more than 100 µM in each case. In the assay with TK-10 renal, this compound displayed a TGI of more than 100 µM.

Regarding `O=C(O)C1CCCCC1C(=O)O.[NH-]C1CCC1.[NH2-].[Pt+2]` (stereo not drawn), the GI50 was 57.5 µM with IGROV1 ovarian; 18.9 µM in the assay with NCI-H226 lung; more than 100 µM in the assay on SF-268 CNS; 42.6 µM with SF-295 CNS; 57.2 µM in the assay with SK-MEL-2 melanoma; more than 100 µM in the assay on SNB-19 CNS. The GI50 with SNB-75 CNS was 84.6 µM; in the assay with TK-10 renal it was 18.1 µM; with U251 CNS, 58 µM. Besides, the TGI is more than 100 µM with IGROV1 ovarian; 42.8 µM in the assay with NCI-H226 lung; more than 100 µM in the assay with SF-268 CNS; more than 100 µM in the assay with SF-295 CNS; more than 100 µM with SK-MEL-2 melanoma; more than 100 µM in the assay on SNB-19 CNS. Also, the figures for the TGI with SNB-75 CNS, with TK-10 renal and in the assay on U251 CNS were more than 100 µM, 34.4 µM and more than 100 µM, respectively.

`Cc1ccc(-c2cc(-c3ccccc3)c(C#N)c(=O)n2C2OC(CO)C(O)C(O)C2O)cc1` (stereo not drawn): the TGI with A498 renal, in the assay with IGROV1 ovarian, with NCI-H226 lung, in the assay on SF-268 CNS, in the assay on SF-295 CNS and with SNB-19 CNS was more than 100 µM each time. For the same compound, the TGI in the assay with TK-10 renal and in the assay with U251 CNS was more than 100 µM each time.

Turning to `CCC1=NC(CO)[C@H](c2ccccc2)O1` (stereo partly drawn), the TGI in the assay with A498 renal, in the assay with IGROV1 ovarian, in the assay on SF-268 CNS, in the assay with SF-295 CNS, in the assay on SK-MEL-2 melanoma and in the assay on SNB-19 CNS was more than 100 µM each time. The TGI in the assay with SNB-75 CNS, in the assay on TK-10 renal and in the assay on U251 CNS was more than 100 µM in each case.

`CCOC(=O)c1cc(/C=C/C(C)=C/C(=O)OC)oc1C`: the TGI in the assay with IGROV1 ovarian, in the assay with SF-268 CNS, in the assay with SF-295 CNS, with SK-MEL-2 melanoma, in the assay with SNB-19 CNS and in the assay on SNB-75 CNS was more than 100 µM throughout. In addition, the TGI with TK-10 renal and in the assay with U251 CNS was more than 100 µM throughout.

`CN(C)CCCNC(=O)c1ccc2c(c1)oc1cc3ccccc3c(=O)n12`: the GI50 with IGROV1 ovarian is 9.94 µM; in the assay on SF-268 CNS, 16.1 µM; in the assay with SF-295 CNS, 19 µM; in the assay on SK-MEL-2 melanoma, 9.3 µM; in the assay on SNB-19 CNS, more than 50 µM; with SNB-75 CNS, 9.44 µM. Moreover, the GI50 with TK-10 renal is 25.1 µM; in the assay with U251 CNS it was 11.1 µM. Also, the TGI in the assay on IGROV1 ovarian was 43.5 µM; in the assay with SF-268 CNS, 40 µM; in the assay with SF-295 CNS it was 40.5 µM; with SK-MEL-2 melanoma it was 32.6 µM; with SNB-19 CNS, more than 50 µM; with SNB-75 CNS, 22 µM. Besides, the TGI with TK-10 renal was more than 50 µM; in the assay with U251 CNS, 22.8 µM.

On to `CCCOc1ccc2nc(NC(=O)OC)[nH]c2c1`, for which the GI50 with A498 renal is 0.162 µM; in the assay on IGROV1 ovarian, 0.481 µM; in the assay on NCI-H226 lung, 0.399 µM; in the assay with SF-268 CNS, 2.43 µM; in the assay on SF-295 CNS, 0.215 µM; in the assay on SK-MEL-2 melanoma it was 1.19 µM. Moreover, the GI50 in the assay on SNB-19 CNS was 0.384 µM; in the assay on TK-10 renal, more than 25.5 µM; with U251 CNS, 0.301 µM. Moreover, the TGI is 1.46 µM in the assay on A498 renal; more than 100 µM with IGROV1 ovarian; more than 100 µM with SF-268 CNS; more than 100 µM with SF-295 CNS; more than 100 µM in the assay on SK-MEL-2 melanoma; more than 100 µM in the assay with SNB-19 CNS. Moreover, the TGI with TK-10 renal and in the assay on U251 CNS was more than 100 µM each time.

As for `CCN(CC)C(=S)Oc1cc2oc(=O)cc(C)c2cc1Cl`, the TGI in the assay with A498 renal, in the assay with IGROV1 ovarian, in the assay on NCI-H226 lung, in the assay with SF-268 CNS, with SF-295 CNS and in the assay on SK-MEL-2 melanoma was more than 100 µM throughout. Also, the TGI with SNB-19 CNS, with TK-10 renal and with U251 CNS was more than 100 µM throughout.

Take `COc1ccc2c(c1)/C(=C\c1c(Cl)[nH]c3ccc(OC)cc13)C(=O)N2`: the GI50 with IGROV1 ovarian is 56.9 µM; in the assay with NCI-H226 lung it was 41.9 µM; in the assay on SF-268 CNS, 61.2 µM; with SF-295 CNS, 19.9 µM; in the assay with SK-MEL-2 melanoma, 25.8 µM; in the assay on SNB-19 CNS, 20.6 µM. The figures for the GI50 with TK-10 renal and in the assay with U251 CNS were 44 µM and 19.7 µM, respectively. Moreover, the TGI with IGROV1 ovarian is more than 100 µM; in the assay on NCI-H226 lung it was more than 100 µM; with SF-268 CNS, more than 100 µM; in the assay on SF-295 CNS, 45.8 µM; in the assay with SK-MEL-2 melanoma it was 62.8 µM; with SNB-19 CNS, 64.1 µM. Also, the TGI in the assay with TK-10 renal was more than 100 µM; in the assay on U251 CNS, 43.8 µM.
